These results are taken from patent US9551722B2, “Amyloid binding agents” (The Regents of the University of California, priority 2009, dated 2017).

SMILES strings stand for the structures. Values joined by “and” are separate entries in the source; they are usually repeats but may differ in a detail not shown here. Identical values can stand only once.

The target in experiment [1] is T1, pre-aggregated Aβ(1-42) peptide (Homo sapiens, UniProt P05067).
T1 construct: preaggregated Aβ(1-42) peptides
T1 sequence (P05067 672-713 limits assumed): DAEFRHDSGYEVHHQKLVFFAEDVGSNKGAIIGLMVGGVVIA
As to the kind of experiment: Apparent binding constant (Kd) by double reciprocal fluorescence plot. Conditions: compound 10, 5, 2.5, 1.25 μM; 5.0 μM pre-aggregated Aβ(1-42); PBS pH 7.4. How it is done:
We also measured the apparent binding constants (Kd) of the compounds (in concentrations of 10, 5, 2.5 and 1.25 μM) to 5.0 μM pre-aggregated Aβ(1-42) peptide. The Kd can be measured from the double reciprocal of the fluorescent maximum and the concentration of the compound. See H. LeVine III, Protein Sci. 1993, 2:404-410. […] [22,] See LeVine, Id.; Lockhart, L. Ye, D. B. Judd, A. T. Merritt, P. N. Lowe, J. L. Morgenstern, G. Z. Hong, A. D. Gee, J. Brown, J. Biol. Chem. 2005, 280:7677-7684; M. Biancalana, K. Makabe, A. Koide, S. Koide, J. Mol. Biol. 2008, 383:205-213; M. Biancalana, K. Makabe, A. Koide, S. Koide, J. Mol. Biol. 2009, 385:1052-1063. The Kd corresponds to the −1/(x-intercept) of the linear regression.
Pre-aggregated Aβ(1-42) (5 μM final concentration) was mixed with various concentrations of compounds described herein (10, 5, 2.5, 1.25 μM) in PBS buffer (pH 7.4) and their fluorescence was measured. The negative inverse of the x-intercept of the linear regression, that was drawn between the double reciprocal of the fluorescence intensity maximum and concentration of the compound, represents the compound binding constant (Kd) to Aβ(1-42).
In order to quantify the dissociation constants (Kd's) for the binding of fluorescent compounds with aggregated β-amyloid peptides, we used the method described by LeVine (see H. LeVine III, Protein Sci. 1993, 2, 404-410). This method is similar to the method described by Benesi-Hildebran (see C. Yang, L. Liu, T. W. Mu, Q. X. Guo, Anal. Sci. 2000, 16, 537-539). Here, the fluorescence of the compound was measured with and without the addition of the aggregated peptides in solution. The relative fluorescence enhancement of the compound upon binding to aggregated β-amyloid peptides was determined by taking the difference between F (fluorescence after the addition of aggregated peptides) and F (fluorescence before the addition of aggregated peptides).
In order to estimate the binding constant (Kd) for the compound-Aβ complexes from the fluorescence studies, we made the following assumptions: • 1. All compounds are completely in solution and free of any significant competing binding process such as self-aggregation. • 2. The concentration of unbound compounds can be approximated as close to the total concentration of the compounds. • 3. The binding sites in the aggregated Aβ peptides are not completely occupied at the concentration of Aβ-binding compounds used for the fluorescence studies (i.e., the experiments are carried out under non-saturated binding conditions).
FIG. 2 and FIG. 6 provide double reciprocal plots of the measured fluorescence versus total concentration of compound [GO]. Assuming that [G] can be approximated as close to [GO] (assumption 2), we can obtain estimates for the Kd's of the compound-Aβ complexes from the x-intercept of the linear fits of the data for each compound.

In experiment [2] the target is T2, interaction of the aggregated Aβ peptide with a monoclonal anti-Aβ IgG (Homo sapiens, UniProt P05067).
T2 construct: Aggregated Aβ peptides were generated from synthetic Aβ(1-42) peptides
T2 sequence (P05067 672-713 limits assumed): as above
Description: Semi-quantitative ELISA: inhibition of IgG-Aβ fibril interactions. The format is binding. Conditions: anti-Aβ IgG clone 6E10; for IC50: 50% inhibition of IgG-Aβ interactions; for Maximum % inhibition (ELISA): maximal percentage of IgG inhibited from binding to the fibrils. As to the method:
The association of the synthesized compounds with aggregated Aβ peptides was tested using a semi-quantitative ELISA based assay developed by Yang and co-workers. See P. Inbar, J. Yang, Bioorg. Med. Chem. Lett. 2006, 16:1076-1079; P. Inbar, C. Q. Li, S. A. Takayama, M. R. Bautista, J. Yang, ChemBioChem 2006, 7:1563-1566; P. Inbar, M. R. Bautista, S. A. Takayama, J. Yang, Anal. Chem. 2008, 80:3502-3506. The assay is based on screening for molecules that inhibit the interaction of the aggregated Aβ peptide with a monoclonal anti-Aβ IgG raised against residues 1-17 of Aβ. Table 4 provides the concentrations of the compounds corresponding to 50% inhibition (IC50) of the IgG-Aβ interactions as well as the maximal percentage of the IgG's inhibited from binding to the fibrils. […] The maximum inhibition, a measure of the extent of surface coating of the aggregated peptide by the compounds, was determined to be between 40-98% (Table 4). See P. Inbar, J. Yang, Bioorg. Med. Chem. Lett. 2006, 16:1076-1079; P. Inbar, C. Q. Li, S. A. Takayama, M. R. Bautista, J. Yang, ChemBioChem 2006, 7:1563-1566; P. Inbar, M. R. Bautista, S. A. Takayama, J. Yang, Anal. Chem. 2008, 80:3502-3506. […] Specifically, while the maximum inhibition is between 81-98% for the phenyl compounds, it decreases to 58% for the longer naphthalene compound 11 and to 40% for the more conjugated stilbene 19.
Aggregated Aβ peptides were generated from synthetic Aβ(1-42) peptides by dissolving 30 μg of peptide in 90 μL of nanopure water (pH 5-6) and incubating at 37° C. for ≧72 h without agitation. Each well of a 96-well plate (well volume 0.4 mL; clear, flat bottom polypropylene) was coated for 3 h at 25° C. with 50 μL of 1.3 μM solution of Aβ peptides in phosphate-buffered saline (PBS, 10 mM NaH2PO4/Na2HPO4, 138 mM NaCl, 2.7 mM KCl, pH 7.4). After removal of the excess sample, 50 μL solutions of compounds in PBS buffer (various concentrations were obtained by diluting a stock solution with PBS buffer) were incubated in the wells for 12 h. […] The excess solutions were then removed and all wells were blocked for 30 min by adding 300 μL of a 1% (w/v) solution of bovine serum albumin in PBS buffer (BSA/PBS). On occasion, an additional blocking step was performed prior to incubation with solutions of small molecules. The blocking solution was discarded and the wells were washed once with 300 μL of PBS buffer. Wells were incubated for 1 h with 50 μL of a 1.1 nM solution (in 1% BSA/PBS, dilution 1:6000) of anti-Aβ IgG (clone 6E10, monoclonal, mouse), followed by removal of the solution. The wells were washed twice with 300 μL of PBS buffer and incubated for 60 min with 50 μL of the secondary IgG (anti-mouse IgG H+L, polyclonal, rabbit) conjugated with alkaline phosphatase (6.8 nM in 1% BSA/PBS, dilution 1:1000). The solution was discarded, and the wells were washed twice with 300 μL PBS buffer. Bound secondary IgGs were detected by the addition of 50 μL of a p-nitrophenyl phosphate solution (2.7 mM, in 100 mM diethanol amine/0.5 mM magnesium chloride, pH 9.8). Absorbance intensities were determined at 405 nm using a UV-vis spectroscopic plate reader (Sprectramax 190, Molecular Devices, Sunnyvale, Calif.). Each run was performed five times and averaged. Error bars represent standard deviations. Graphs were plotted and fitted with the sigmoid curve fitting.
Background: An ELISA detects its analyte on a solid surface through an enzyme-linked reagent.

With `CCN(CC)c1ccc(C=C(C#N)C(=O)OCCOCCOCCOC)cc1` (stereo in doubt) [Cmpd 8c, (Z)-2-(2-(2-methoxyethoxyl)ethoxy)ethyl 2-cyano-3-(4-(diethylamino)phenyl)acrylate], in experiment [1], the Kd stood at 4.8 µM. For the same compound, in experiment [2], the IC50 turned out to be 11.4 µM and the “Maximum % inhibition (ELISA)” value worked out at 98%.

Turning to `COCCOCCOCCOC(=O)/C(C#N)=C/c1ccc(N(C)C)cc1` [Cmpd 8a, (E)-2-(2-(2-methoxyethoxyl)ethoxy)ethyl 2-cyano-3-(4-(dimethylamino)phenyl)acrylate], in experiment [1], the Kd is 2.6 µM. In addition, in experiment [2], 129 µM corresponded to half-maximal inhibition (IC50) and the “Maximum % inhibition (ELISA)” value is reported as 81%.

Turning to `CN(C)c1ccc(/C=C(\C#N)C(=O)OCC(O)CO)cc1` (stereo not drawn) [Cmpd 14, (E)-2,3-dihydroxypropyl 2-cyano-3-(4-(dimethylamino)phenyl) acrylate], in experiment [1], the Kd is 3.3 µM. Also, in experiment [2], the IC50 worked out at 82.1 µM and the “Maximum % inhibition (ELISA)” value is 79%.

Turning to `CCCCN(CCCC)c1ccc(C=C(C#N)C(=O)OCCOCCOCCOC)cc1` (stereo in doubt) [Cmpd 8d, (Z)-2-(2-(2-methoxyethoxyl)ethoxy)ethyl-2-cyano-3-(4-(dibutylamino)phenyl)acrylate], in experiment [1], the Kd is 4.4 µM. Also, in experiment [2], 90.6 µM corresponded to half-maximal inhibition (IC50) and the “Maximum % inhibition (ELISA)” value is recorded as 91%.

Consider `COCCOCCOCCOC(=O)/C(C#N)=C/c1ccc2cc(N3CCCCC3)ccc2c1` [Cmpd 11, (E)-2-(2-(2-methoxyethoxyl)ethoxy)ethyl-2-cyano-3-(6-(piperidin-1-yl)naphthalen-2-yl)acrylate], for which, in experiment [1], the Kd came to 2.5 µM. Besides, in experiment [2], the IC50 was 74.3 µM and the “Maximum % inhibition (ELISA)” value is recorded as 58%.

Consider `COCCOCCOCCOC(=O)/C(C#N)=C/c1ccc(N(C)C)cc1OC` [Cmpd 8b, (E)-2-(2-(2-methoxyethoxyl)ethoxy)ethyl 2-cyano-3-(4-(dimethylamino)-2-methoxyphenyl)acrylate], for which the Kd in experiment [1] is 5.3 µM. Moreover, in experiment [2], the IC50 is 1.17 µM and 1.2 µM; the “Maximum % inhibition (ELISA)” value is recorded as 92%.

What is called IC50 is the concentration that inhibits the measured activity by half. A high value points to a need for much substance.
